Data on 92 compounds can be found in PubChem BioAssay AID2823 (Broad Institute, 2010).

Usually IC50 stands for the concentration needed to halve the response being measured.

Structures are written as SMILES. Activity calls are given as the source filed them. The rule behind the calls is not given here.

The experiment has as its target RanGTP-importin-beta complex (human Ran / KPNB1). The experiment can be described thus: Ran–importin-beta interaction inhibitors, confirmation, biochemical, FRET, CFP/YFP, cell-free homogeneous (AID 2823). Conditions: CFP-Ran/YFP-importin-beta FRET ratio.
Turning to `CN1CCN(C(=O)c2ccccc2Nc2ccc(SC(F)F)cc2)CC1`, the IC50 was > 50 µM (inactive).
As for `CC(C)Sc1nc(N2CCOCC2)c2c3c(sc2n1)COC(C)(C)C3`, the IC50 was > 50 µM (inactive).
For the compound `CCc1ccccc1NC(=O)/C(C#N)=C\c1ccc(Sc2ccccc2)o1`, the IC50 was > 50 µM (inactive).
With `CCN1C(=S)SC(=O)C1=C1C=C(C)N(Cc2ccco2)C(C)=C1` the figure was 11.1 µM.
With `COc1cc(SC)ccc1C(=O)Nc1nc(C)cs1` the figure was > 50 µM (inactive); with `NS(=O)(=O)c1cccc(NC(=O)CCSc2ccc(Cl)cc2)c1`, > 50 µM (inactive); with `CCN(CC)CCCNC(=S)N(Cc1cccs1)Cc1cc2cc3c(cc2[nH]c1=O)OCCO3`, > 50 µM (inactive).
For the compound `CCc1ccc(CNc2ccc3c(c2)ncn3C(C)(C)C)cc1`, the IC50 is > 50 µM (inactive).
With `O=c1[nH]c(=O)n(-c2cccc3ccccc23)c(O)c1/C=N/N1CCCCCC1` the figure was > 50 µM (inactive); with `Cc1c(/C=N\NC(=O)C2COc3ccccc3O2)c2ccccc2n1C` (configuration not stated), > 50 µM (inactive).
With `OCCNCc1cccc(OCc2ccccc2Cl)c1` the figure was > 50 µM (inactive); with `COc1ccccc1N1CCN(C(=O)/C=C/c2ccc(C)cc2)CC1`, > 50 µM (inactive).
With `COCCn1c(=NC(=O)c2ccc3c(c2)OCO3)c(C#N)cc2c(=O)n3cccc(C)c3nc21` the figure was > 50 µM (inactive).
For `N#Cc1cc2c(ccc3ccccc32)oc1=O`, the IC50 is > 50 µM (inactive).
Regarding `CCOC(=O)c1c(NC(=O)C2CCCCC2)sc2c1CCN(C(C)C)C2`, the IC50 was > 50 µM (inactive).
With `COc1ccc2c(CC#N)c[nH]c2c1` the figure was > 50 µM (inactive); with `COC(=O)c1ccc2c(=O)n(CCN3CCOCC3)c(SCC(=O)C(C)(C)C)nc2c1`, > 50 µM (inactive); with `CCOCCCNC(=S)NCCNc1nc2c(C)cccc2cc1C#N`, 36.1 µM.
For `O=C(O)c1ccccc1C(=O)Nc1ccc(Br)c2cccnc12` the value was > 50 µM (inactive); for `COC(=O)C1=CN(C2CC2)C=C(C(=O)OC)C1c1ccc(C(F)(F)F)cc1`, 30.8 µM; for `CCOC(=O)c1c(NC(=O)c2cccc(N3C(=O)CCC3=O)c2)sc2c1CCN(CC)C2`, > 50 µM (inactive).
For `Cc1sc2ncn(CC(=O)NCCCC(=O)N3CCN(Cc4ccc5c(c4)OCO5)CC3)c(=O)c2c1C`, the IC50 was > 50 µM (inactive).
Regarding `O=C(Nc1cccc(F)c1)c1ccc(S(=O)(=O)NCC2CCCO2)cc1` (configuration not stated), the IC50 was > 50 µM (inactive).
Consider `COCCCn1c(N)c(C(=O)OC(C)COC)c2nc3ccccc3nc21` (configuration not stated), for which the IC50 was 24.8 µM.
For `CC(C)(C)NC(=O)C(c1ccco1)N(Cc1ccc(F)cc1)C(=O)c1snc(C(N)=O)c1N` (configuration not stated) the value was > 50 µM (inactive).
As for `O=c1cc(N2CCc3ccccc3C2)[nH]c(=O)n1C1CCCCC1`, the IC50 was > 50 µM (inactive).
For `COc1ccc(CCNC(=O)c2cc3c(=O)n4ccccc4nc3n(C3CCCCC3)c2=N)cc1OC` the value was 23.2 µM; for `COC(=O)C1=C(C)NC2=C(C(=O)CCC2)C1c1cccc(C)n1` (configuration not stated), 25.5 µM.
As to `COc1ccc(OC)c(S(=O)(=O)n2ccnc2C)c1`, the IC50 is > 50 µM (inactive).
Take `COC(=O)C1=CN(Cc2ccccc2)C=C(C(=O)OC)C1c1cc(F)ccc1F`: the IC50 was 15.9 µM.
On to `COc1cc(C2C3CN(C)CC=C3C(C#N)=C(N)C2(C#N)C#N)ccc1OC(C)C` (configuration not stated), for which the IC50 was 12.1 µM.
For the compound `CCCn1c(SCC(=O)Nc2ccc(NC(C)=O)cc2)nc2c1c(=O)n(C)c(=O)n2C`, the IC50 is > 50 µM (inactive).
For `CCN(C(=O)c1c(C)cc(=O)oc1C)c1ccc2c(c1)OCO2` the value was > 50 µM (inactive).
For `CCCn1nc(NC(=O)CC(C)C)c2cc3cccc(C)c3nc21` the value was 5.82 µM; for `CCCN1CC(O)=C(C#N)C1=O`, > 50 µM (inactive).
Take `O=C(NNc1c2ccccc2nc2ccccc12)C12CC3CC(CC(C3)C1)C2`: the IC50 is > 50 µM (inactive).
With `OCCC1CN(Cc2cccn2-c2cccnc2)CCN1Cc1ccc(F)cc1` (configuration not stated) the figure was > 50 µM (inactive).
`Oc1nc(Nc2ccc(F)cc2)sc1/C=C1\C=Nc2ccccc21`: the IC50 is > 50 µM (inactive).
Take `O=C(CN1CC(=O)Oc2ccccc21)NCc1ccco1`: the IC50 was > 50 µM (inactive).
With `N=c1c(S(=O)(=O)c2ccc(Cl)cc2)cc2c(=O)n3ccccc3nc2n1Cc1cccnc1` the figure was > 50 µM (inactive).
Consider `O=C(Cc1n[nH]c(=O)c2ccccc12)NCc1ccccn1`, for which the IC50 is > 50 µM (inactive).
For the compound `COC(=O)C1=CN(c2ccc(OC)cc2)C=C(C(=O)OC)C1c1cccc(F)c1`, the IC50 was 35.2 µM.
For `Cc1cccc(C)c1NC(=O)C1c2cccc[n+]2CC(=O)N1Cc1cccs1` (configuration not stated) the value was > 50 µM (inactive).
With `Cn1c(SCc2cccc([N+](=O)[O-])c2)nc2c(c1=O)SCC2` the figure was > 50 µM (inactive); with `CCc1cc(=O)oc2c(CN3CCN(C)CC3)c(O)c(Cl)cc12`, 27.1 µM; with `Cc1cnc(=O)[nH]c1SCC(=O)c1ccc(F)cc1`, > 50 µM (inactive).
With `CCOC(=O)C1=C(C)NC2=C(C(=O)C(C(=O)OCC)C(c3cccc(OC)c3)C2)C1c1ccccn1` (configuration not stated), the concentration for half-maximal inhibition (IC50) was 22.2 µM.
With `COc1ccc2c(c1)O/C(=C\c1ccco1)C2=O`, the IC50 is 18.3 µM.
Turning to `CC1CN(c2cc(=O)n(-c3cccc(Br)c3)c(=O)[nH]2)CC(C)O1` (configuration not stated), the IC50 is > 50 µM (inactive).
As for `O=C(Cc1ccccc1)NNc1c2ccccc2nc2ccccc12`, the IC50 is > 50 µM (inactive).
For the compound `O=C(c1cc(COc2ccc(F)cc2Cl)on1)N1CCCC(c2ccccc2)C1` (configuration not stated), the IC50 is > 50 µM (inactive).
For the compound `CCSc1nnc(-c2cc(Br)ccc2N=Cc2c(C)[nH]n(-c3ccccc3)c2=O)c(=O)[nH]1`, the IC50 was > 50 µM (inactive).
For `CCCc1c2ccccc2nc2ccccc12` the value was 8.26 µM.
For `CC(=O)Cc1nsc(NC(=O)c2ccc(-c3cccc(C(F)(F)F)c3)o2)n1` the value was > 50 µM (inactive); for `COc1ccc(C(=O)NCCNc2nc3c(C)cccc3cc2C#N)cc1`, 24.4 µM; for `CCOc1ccc(C)cc1S(=O)(=O)Nc1ccc(Cl)cn1`, > 50 µM (inactive).
With `COC(=O)c1sccc1NC(=O)c1csc(C)c1` the figure was > 50 µM (inactive); with `O=C(Cn1c(=O)c2cccn2c2cccnc21)NCCCN1CCN(c2ccc(F)cc2)CC1`, > 50 µM (inactive).
For the compound `CCc1ccc(C(=O)c2cc3ccc(O)cc3oc2=O)cc1`, the IC50 was 11.7 µM.
Consider `O=C(/C=C/c1cccs1)Nc1ccc([N+](=O)[O-])cc1`, for which the IC50 was > 50 µM (inactive).
Take `CC(C)CN(Cc1c(O)ccc2ccccc12)CC(C)C`: the IC50 is > 50 µM (inactive).
Regarding `CCOC(=O)C(=O)Nc1cc(C(=O)OC)cc(C(=O)OC)c1`, the IC50 is > 50 µM (inactive).
`O=c1cc(N2CCN(Cc3ccccc3)CC2)[nH]c(=O)n1-c1ccc(Br)cc1`: the IC50 is > 50 µM (inactive).
For `CC(C)NC(=O)/C(C#N)=C/c1ccc(N(C)C)o1` the value was 6.07 µM; for `COCCNC(=O)C(C)OC(=O)c1cc2occc2n1C` (configuration not stated), > 50 µM (inactive); for `CCOC(=O)c1ccc2[nH]cc(C(C)=O)c(=O)c2c1`, 12.6 µM.
As to `COc1ccc(N2C(=O)c3ccccc3NC2c2cccnc2)cc1` (configuration not stated), the IC50 is > 50 µM (inactive).
For `O=c1cn[nH]c2ccccc12` the value was > 50 µM (inactive).
With `O=C(O)c1cn(Cc2cccnc2)c(=O)c2ccccc12` the figure was > 50 µM (inactive).
With `Cc1ccc(Nc2nc(N)nc(CC#N)n2)cc1` the figure was > 50 µM (inactive); with `N#Cc1c(N)n(CCOC(=O)c2ccc(Cl)cc2)c2nc3ccccc3nc12`, 3.68 µM.
In the case of `CC(C)NC(=O)NC(=O)COC(=O)c1ccccc1O`, the IC50 was > 50 µM (inactive).
For the compound `CCCCCN(C(=O)CN(C)Cc1ccc(OC)cc1OC)c1c(N)n(CCCC)c(=O)[nH]c1=O`, the IC50 is > 50 µM (inactive).
For `N#Cc1cc2cc3c(cc2nc1N1CCOCC1)OCO3` the value was 12.2 µM.
Regarding `NC(=O)c1sc2nccc(Nc3ccccc3)c2c1N`, the IC50 is > 50 µM (inactive).
Turning to `OCCNc1nc(-c2ccccc2)nc2ccccc12`, the IC50 was > 50 µM (inactive).
With `COc1ccc(C(=O)O)cc1S(=O)(=O)N(C)C` the figure was > 50 µM (inactive); with `Cc1ccc2cc(C#N)c(N3CCCC3)nc2c1C`, > 50 µM (inactive).
For `O=C(CN1CCOCC1)NNc1c2ccccc2nc2ccccc12` the value was > 50 µM (inactive).
Take `COc1ccccc1N=C(C)C1=C(O)CC(c2ccccc2)CC1=O` (configuration not stated): the IC50 was > 50 µM (inactive).
For `CC(=O)O[C@H]1CCC2C3CCC4=CC(=O)CCC4=C3C=C[C@@]21C` (some centres not stated) the value was > 50 µM (inactive); for `CC(C)n1c(O)c(C2c3cc(Cl)ccc3Oc3[nH]c(=O)n(C(C)C)c(=O)c32)c(=O)[nH]c1=O` (configuration not stated), > 50 µM (inactive).
For `CCOC(=O)/C(=N\Nc1ccc(C(C)=O)cc1)c1csc(Nc2ccccc2)n1` the value was > 50 µM (inactive); for `COc1cc(CN2CCN(Cc3c[nH]c4ccccc34)CC2CCO)cc(OC)c1` (configuration not stated), > 50 µM (inactive); for `CCCCc1cc(=O)oc2c(CN3CCCC3)c(O)c(Cl)cc12`, 23 µM.
With `Cc1c(CCC(=O)NCCCN2CCCC2=O)c(=O)oc2c(C)c(O)ccc12`, the IC50 was 15.6 µM.
Take `CCCc1cc(=O)oc2c(CN3CCCC3)c(O)c(Cl)cc12`: the IC50 is 27.1 µM.
For the compound `Cc1ccc(-c2c(C#N)c(N)nc3c2CCCC3)s1`, the half-maximal inhibitory concentration (IC50) is 25.7 µM.
In the case of `Cc1cc2c(c(=O)n1C1CC1)C(c1cccc(Cl)c1)C(C#N)=C(N)O2` (configuration not stated), the IC50 is > 50 µM (inactive).
For `COc1ccc2c(c1)C(c1ccc(C)o1)=NNC(c1cccnc1)=N2` the value was > 50 µM (inactive); for `Nc1c(C(=O)NCc2ccccc2)c2nc3ccccc3nc2n1-c1ccc2c(c1)OCO2`, 15.2 µM; for `Cc1ccc(CNC(=O)c2cccnc2)cc1`, > 50 µM (inactive).
